Reference: paper PMC8151276, “An Integrated Approach toward NanoBRET Tracers for Analysis of GPCR Ligand Engagement” (Molecules, 2021)

Key:
Type in all cases: binding
[1] = target: T1, CHRM3 (Homo sapiens, UniProt P20309); assay: NanoBRET screen HiBiT-CHRM3 in HEK293
T1 construct: purchased Promega (in-house HiBiT-GPCR construct library, NanoBRET)

[2] = target: T2, CHRM1 (Homo sapiens, UniProt P11229); assay: NanoBRET screen HiBiT-CHRM1 in HEK293
T2 construct: purchased Promega (in-house HiBiT-GPCR construct library, NanoBRET)
T2 sequence (P11229 1-460): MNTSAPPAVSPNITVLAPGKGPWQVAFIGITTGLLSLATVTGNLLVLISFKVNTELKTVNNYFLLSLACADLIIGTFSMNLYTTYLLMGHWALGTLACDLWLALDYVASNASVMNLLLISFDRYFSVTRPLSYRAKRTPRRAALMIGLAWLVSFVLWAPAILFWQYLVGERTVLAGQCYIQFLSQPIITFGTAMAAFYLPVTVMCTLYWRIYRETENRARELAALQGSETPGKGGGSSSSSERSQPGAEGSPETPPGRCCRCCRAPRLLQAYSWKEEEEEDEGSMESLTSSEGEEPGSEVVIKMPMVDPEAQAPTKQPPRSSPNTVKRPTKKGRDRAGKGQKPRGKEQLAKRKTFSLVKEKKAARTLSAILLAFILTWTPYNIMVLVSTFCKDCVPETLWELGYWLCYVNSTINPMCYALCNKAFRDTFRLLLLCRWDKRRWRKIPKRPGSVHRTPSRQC

[3] = target: T3, ADRA2C (Homo sapiens, UniProt P18825); assay: NanoBRET screen HiBiT-ADRA2C in HEK293
T3 construct: purchased Promega (in-house HiBiT-GPCR construct library, NanoBRET)
T3 sequence (P18825 1-462): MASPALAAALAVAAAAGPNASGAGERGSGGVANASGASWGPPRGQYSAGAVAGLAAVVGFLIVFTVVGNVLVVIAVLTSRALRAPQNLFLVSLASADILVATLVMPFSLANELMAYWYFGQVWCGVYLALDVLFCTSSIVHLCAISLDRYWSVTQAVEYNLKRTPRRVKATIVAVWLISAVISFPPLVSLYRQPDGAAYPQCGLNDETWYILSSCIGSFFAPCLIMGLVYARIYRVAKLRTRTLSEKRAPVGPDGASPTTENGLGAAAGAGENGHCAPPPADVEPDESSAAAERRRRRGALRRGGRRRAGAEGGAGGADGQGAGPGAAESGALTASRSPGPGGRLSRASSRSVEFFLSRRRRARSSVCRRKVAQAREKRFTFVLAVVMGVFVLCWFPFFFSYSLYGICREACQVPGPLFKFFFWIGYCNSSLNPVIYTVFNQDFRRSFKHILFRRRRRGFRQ
Description: Each tracer candidate was screened across the entire library of HiBiT-GPCR constructs using NanoBRET as the detection modality. As depicted in Figure 4A, the specificity of interactions was evaluated through decrease in BRET due to competitive displacement of a bound tracer by excess parental compound. Each tracer was analyzed for binding to each HiBiT-GPCR fusion in the absence and in the presence of competing parental compound. Briefly, HEK293 cells were transfected with HiBiT-GPCR constructs diluted into promoterless DNA to reduce expression and maximize translocation to the cell surface. Each tracer candidate was then screened at concentrations of 1 μM and 0.1 μM across cells expressing these fusions. Cells were treated for 1.5 h with tracer either alone or in the presence of 20 μM competing parental compound (i.e., control). BRET was measured upon addition of purified LgBiT and subsequent complementation with HiBiT genetically fused to a GPCR. The specificity of interactions was assessed through a decrease in BRET signal due to competitive displacement of the bound tracer. To further gauge the robustness of these interactions, the fold response over the control (i.e., BRETtracer/BRETcontrol) was calculated. We chose a 1.5-fold response, which translates to ≥7-fold signal over noise as the minimal threshold required to score an interaction as positive. […]. Below we highlight the screening results obtained for our exemplary fluorescent tracers based on Clozapine, Amitriptyline and AZD1283.
HiBiT-GPCR DNA constructs were diluted in 10 mM Tris pH 8 to a final concentration of 0.01 μg/μL, arrayed in 96-well plates and stored at −20 °C. For transfection, HEK293 cells were suspended in Opti-MEM (without phenol red) supplemented with 2% fetal bovine serum (Seradigm) and 100 units/mL penicillin–streptomycin (Gibco) at a final concentration of 220,000 cells/mL and dispensed into white 96-well plates at 90 μL/well. Subsequent transfections and screens were carried using an Agilent Bravo Automated Liquid Handling Platform. First, the 96-well HiBiT DNA arrays were diluted 25-fold in Opti-MEM (without serum or phenol red) to a final concentration of 0.0004 μg/μL and 20 μL of the diluted DNAs were transferred into new 96-well plates. Next, promoterless carrier DNA (1 μg/μL) was diluted 25-fold (0.04 μg/μL) and then dispensed into the diluted arrays at 20 μL/well. Following brief mixing, Viafect transfection reagent (Promega) diluted 16-fold into Opti-MEM was dispensed into the plates at 40 μL/well. After mixing by pipetting, plates were incubated for 10 min on the pipetting station deck. The DNA-transfection reagent complexes were then added to plates containing cells. To facilitate the screen, 10 μL of DNA-transfection reagent complexes were added in duplicates to the top 4 and bottom 4 rows, resulting in two identical 48-well arrays per plate. Plates with transfected cells were incubated for 18–20 h at 37 °C/5% CO2. A screen of each tracer across the entire library using two different concentrations requires duplicate plates of transfected cells. Depending on the number of tracers being screened, transfections can be scaled up using the same ratios. The next day, for each tracer, four 20× screening solutions in tracer dilution buffer (Promega) were prepared: two duplicates at final concentration of 20 μM and two duplicates at a final concentration of 2 μM. A competing unmodified compound was added to one of each duplicate at a final concentration of 400 μM. The four resulting solutions were diluted 4-fold in Opti-MEM without serum or phenol red to generate 5× solutions (5 µM and 0.5 µM tracer +/− 100 μM competing compound). To screen the library, a BioTek MultiFlo FX liquid dispenser was used to dispense 22.5 µL of tracer solution to the top 4 rows and 22.5 µL tracer + competing compound solution to the 4 bottom rows. Plates were briefly mixed on an orbital shaker and incubated for 1.5 h at room temperature. […]

[4] = target: T4, HRH1 (Homo sapiens, UniProt P35367); assay: NanoBRET screen HiBiT-HRH1 in HEK293
T4 construct: purchased Promega (in-house HiBiT-GPCR construct library, NanoBRET)
T4 sequence (P35367 whole entry): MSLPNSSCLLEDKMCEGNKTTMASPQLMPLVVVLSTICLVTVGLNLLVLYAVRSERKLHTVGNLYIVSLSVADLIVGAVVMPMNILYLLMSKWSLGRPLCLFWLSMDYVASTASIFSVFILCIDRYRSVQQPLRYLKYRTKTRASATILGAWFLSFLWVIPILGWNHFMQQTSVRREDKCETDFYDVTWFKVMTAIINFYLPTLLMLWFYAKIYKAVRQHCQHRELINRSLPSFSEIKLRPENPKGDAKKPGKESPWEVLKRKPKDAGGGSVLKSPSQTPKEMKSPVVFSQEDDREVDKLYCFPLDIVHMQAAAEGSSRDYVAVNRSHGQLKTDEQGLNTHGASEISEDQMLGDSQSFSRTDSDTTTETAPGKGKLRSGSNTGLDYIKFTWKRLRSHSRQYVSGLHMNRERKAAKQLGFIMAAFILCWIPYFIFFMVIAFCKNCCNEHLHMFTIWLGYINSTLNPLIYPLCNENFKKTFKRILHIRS

T1 sequence (P20309 whole entry): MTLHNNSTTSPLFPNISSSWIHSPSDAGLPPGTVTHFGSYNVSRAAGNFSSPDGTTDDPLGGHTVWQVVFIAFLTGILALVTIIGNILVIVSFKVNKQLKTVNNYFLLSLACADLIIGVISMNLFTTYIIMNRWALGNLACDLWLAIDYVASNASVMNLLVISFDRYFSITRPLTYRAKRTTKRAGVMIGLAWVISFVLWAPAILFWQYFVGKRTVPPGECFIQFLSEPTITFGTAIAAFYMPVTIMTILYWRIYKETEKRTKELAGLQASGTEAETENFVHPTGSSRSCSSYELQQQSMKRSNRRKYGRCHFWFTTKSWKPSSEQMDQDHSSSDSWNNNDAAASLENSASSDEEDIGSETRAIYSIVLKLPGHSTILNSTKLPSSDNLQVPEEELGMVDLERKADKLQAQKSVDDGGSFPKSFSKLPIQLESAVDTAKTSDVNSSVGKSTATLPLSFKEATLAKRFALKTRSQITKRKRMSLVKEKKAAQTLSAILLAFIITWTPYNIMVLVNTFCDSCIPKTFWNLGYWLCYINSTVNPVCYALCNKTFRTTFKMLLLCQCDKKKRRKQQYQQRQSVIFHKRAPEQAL

SMILES | NanoBRET Fold Response ([1]; CHRM3, tracer 0.1μM) | NanoBRET Fold Response ([1]; CHRM3, tracer 1μM) | NanoBRET Fold Response ([2]; CHRM1, tracer 0.1μM) | NanoBRET Fold Response ([2]; CHRM1, tracer 1μM) | NanoBRET Fold Response ([3]; ADRA2C, tracer 0.1μM) | NanoBRET Fold Response ([3]; ADRA2C, tracer 1μM) | NanoBRET Fold Response ([4]; HRH1, tracer 0.1μM) | NanoBRET Fold Response ([4]; HRH1, tracer 1μM) | further results
O=C(CCOCCOCCOCCOCCNC(=O)CCc1ccc2n1[B-](F)(F)[N+]1=C(c3ccc[nH]3)C=CC1=C2)NCCCN1CCN(C2=Nc3cc(Cl)ccc3Nc3ccccc32)CC1 [Clozapine-a-2-NB590] | – | – | – | – | – | – | – | – | NanoBRET Fold Response ([1]; CHRM3, 0.1μM tracer): 1.06; NanoBRET Fold Response ([1]; CHRM3, 1μM tracer): 0.92; NanoBRET Fold Response ([2]; CHRM1, 0.1μM tracer): 1.09; NanoBRET Fold Response ([2]; CHRM1, 1μM tracer): 0.98; NanoBRET Fold Response ([3]; ADRA2C, 0.1μM tracer): 1.80; NanoBRET Fold Response ([3]; ADRA2C, 1μM tracer): 1.62; NanoBRET Fold Response ([4]; HRH1, 0.1μM tracer): 4.67; NanoBRET Fold Response ([4]; HRH1, 1μM tracer): 4.78
N#CN=C(NCCCOc1cccc(CN2CCCCC2)c1)NCCNC(=O)CCOCCOCCOCCOCCNC(=O)CCc1ccc2n1[B-](F)(F)[N+]1=C(c3ccc[nH]3)C=CC1=C2 [Aminopotentidine-2-NB590] | 0.99 | 1.04 | 0.98 | 1.35 | 1.35 | 1.25 | 0.91 | 1.08 | –
COc1ccccc1N1CCN(CCCCN2C(=O)c3ccc(CNC(=O)CCOCCNC(=O)c4ccc(CNC(=O)CCc5ccc6n5[B-](F)(F)[N+]5=C(c7ccc[nH]7)C=CC5=C6)cc4)cc3C2=O)CC1 [NAN-190-3-NB590] | 1.10 | 1.12 | 0.89 | 0.92 | 1.56 | 1.33 | 2.18 | 1.84 | –
CCCn1c(=O)c2[nH]c(-c3ccc(OCC(=O)NCCNC(=O)CCOCCNC(=O)c4ccc(CNC(=O)CCc5ccc6n5[B-](F)(F)[N+]5=C(c7ccc[nH]7)C=CC5=C6)cc4)cc3)nc2n(CCC)c1=O [XAC-3-NB590] | 0.90 | 1.29 | 1.11 | 0.99 | 0.77 | 1.20 | 0.95 | 1.24 | –
COc1ccc2c(n1)c(CCNC(C)=O)cn2CCNC(=O)CCc1ccc2n1[B-](F)(F)[N+]1=C(c3ccc[nH]3)C=CC1=C2 [Azamelatonin-1-NB590] | – | – | – | – | – | – | – | – | NanoBRET Fold Response ([1]; 0.1μM tracer): 1.05; NanoBRET Fold Response ([1]; 1μM tracer): 0.96; NanoBRET Fold Response ([2]; 0.1μM tracer): 1.17; NanoBRET Fold Response ([2]; 1μM tracer): 0.93; NanoBRET Fold Response ([3]; 0.1μM tracer): 1.01; NanoBRET Fold Response ([3]; 1μM tracer): 0.79; NanoBRET Fold Response ([4]; 0.1μM tracer): 1.14; NanoBRET Fold Response ([4]; 1μM tracer): 1.14
